“And” between values parts separate entries of the source, which are not always exact repeats. Identical values can stand only once.
Experiments:
[1] = Liquid, Closed cell (Static) method
[2] = excess molar enthalpy (molar enthalpy of mixing); xn = mol fraction of the nth substance listed; details: 303.15 K, 101.3 kPa, Liquid, Calvet calorimetry

COC(C)(C)C [2-methoxy-2-methylpropane]
[1]
Details	vapor or sublimation pressure [kPa]
263.15 K	6.245
263.53 K	6.4
273.15 K	10.67
273.34 K	10.8
283.15 K	17.41
283.27 K	17.6
293.15 K	27.25
293.25 K	27.4
303.15 K	41.16
303.22 K	41.2
313.15 K	60.22
313.24 K	60.3
323.15 K	85.65
323.21 K	85.8
333.15 K	118.78
333.19 K	119.2

CCCCOC [butyl methyl ether]
[1]
Details	vapor or sublimation pressure
262.99 K	3.2 kPa
263.15 K	3.194 kPa
273.04 K	5.7 kPa
273.15 K	5.704 kPa
283.07 K	9.6 kPa
283.15 K	9.688 kPa
293.1 K	15.6 kPa
293.15 K	15.74 kPa
303.12 K	24.4 kPa
303.15 K	24.61 kPa
313.15 K	37.17 kPa
313.16 K	36.8 kPa and 36.9 kPa
323.15 K	54.46 kPa
323.2 K	54 kPa
333.15 K	77.64 kPa
333.25 K	74.1 kPa

CCCCOC [butyl methyl ether] + C=CCCCC
[2]
Details	excess molar enthalpy [kcal/mol]
x2 = 0.0997	0.0055
x2 = 0.1966	0.011
x2 = 0.2897	0.0152
x2 = 0.3935	0.0193
x2 = 0.4933	0.0214
x2 = 0.5922	0.0217
x2 = 0.694	0.0205
x2 = 0.7912	0.0169
x2 = 0.8863	0.0105

C=CCCCC [hex-1-ene]
[1]
Details	vapor or sublimation pressure [kPa]
263.15 K	4.46
263.45 K	4.5
273.15 K	7.716
273.32 K	7.7
283.15 K	12.71
283.24 K	12.8
293.15 K	20.08
293.22 K	20.1
303.15 K	30.54
303.22 K	30.6
313.15 K	44.96
313.2 K	45
323.15 K	64.28
323.19 K	64.4
333.15 K	89.55
333.23 K	89.7

C=CCCCC [hex-1-ene] + COC(C)(C)C
[2]
Details	excess molar enthalpy [kcal/mol]
x1 = 0.1491	0.0209
x1 = 0.2162	0.0271
x1 = 0.3039	0.033
x1 = 0.4052	0.0369
x1 = 0.4892	0.0384
x1 = 0.6174	0.0379
x1 = 0.7128	0.0343
x1 = 0.788	0.0295
x1 = 0.8837	0.0198

— the NIST ThermoML archive (doi:10.1016/j.jct.2012.03.016)
